# Assay results: patent US9062284B2, “Uses and detection of herbicide resistance genes for resistance to aryloxyalkanoate herbicides” (Dow ArgoSciences LLC, priority 2007, dated 2015)
# Tests used:
# [1] = tested on: PAT/Cry1F-transformed Arabidopsis (auxin-sensitive control); assay: Herbicide response of PAT/Cry1F transformed control Arabidopsis; format: in vivo, Arabidopsis thaliana; conditions: for % Injury 20-40% (individuals) / % Injury <20% (individuals) / % Injury >40% (individuals) / % Injury Ave: 14 DAT
# Text: T1 plants were then randomly assigned to various rates of 2,4-D. For Arabidopsis, 50 g ae/ha 2,4-D is an effective dose to distinguish sensitive plants from ones with meaningful levels of resistance. Elevated rates were also applied to determine relative levels of resistance (280, 560, 1120, or 2240 g ae/ha). Tables 11 and 12 show comparisons drawn to an aryloxyalkanoate herbicide resistance gene (AAD-12 (v1)) previously described in PCT/US2006/042133.
# All auxin herbicide applications were made using the DeVilbiss sprayer as described above to apply 703 L/ha spray volume (0.4 ml solution/3-inch pot) or applied by track sprayer in a 187 L/ha spray volume. 2,4-D used was either technical grade (Sigma, St. Louis, Mo.) dissolved in DMSO and diluted in water (<1% DMSO final concentration) or the commercial dimethylamine salt formulation (456 g ae/L, NuFarm, St Joseph, Mo.). Dichlorprop used was commercial grade formulated as potassium salt of R-dichlorprop (600 g ai/L, AH Marks). As herbicide rates increased beyond 800 g ae/ha, the pH of the spray solution became exceedingly acidic, burning the leaves of young, tender Arabidopsis plants and complicating evaluation of the primary effects of the herbicides.
# The first Arabidopsis transformations were conducted using AAD-13 (v1) (plant optimized gene). T1 transformants were first selected from the background of untransformed seed using a glufosinate selection scheme. Over 160,000 T1 seed were screened and 238 glufosinate resistant plants were identified (PAT gene), equating to a transformation/selection frequency of 0.15% which lies in the normal range of selection frequency of constructs where PAT+Liberty are used for selection. T1 plants selected above were subsequently transplanted to individual pots and sprayed with various rates of commercial aryloxyalkanoate herbicides. Table 11 compares the response of AAD-13 (v1) and control genes to impart 2,4-D resistance to Arabidopsis T1 transformants. Response is presented in terms of % visual injury 2 WAT. […] An arithmetic mean and standard deviation is presented for each treatment. The range in individual response is also indicated in the last column for each rate and transformation. PAT/Cry1F-transformed Arabidopsis served as an auxin-sensitive transformed control. The AAD-13 (v1) gene imparted herbicide resistance to individual T1 Arabidopsis plants. Within a given treatment, the level of plant response varied greatly and can be attributed to the fact each plant represents an independent transformation event. Of important note, at each 2,4-D rate tested, there were individuals that were unaffected while some were severely affected. […] At high rates the spray solution becomes highly acidic unless buffered therefore some of the injury may be attributed to the acidity of the spray solution. Arabidopsis grown mostly in the growth chamber has a very thin cuticle and severe burning effects can complicate testing at these elevated rates. Nonetheless, many individuals have survived 2,240 g ae/ha 2,4-D with little or no injury.
# The ability of AAD-13 (v1) to provide resistance to other aryloxyalkanoate auxin herbicides in transgenic Arabidopsis was determined by foliar application of various substrates. T2 generation Arabidopsis seed was stratified, and sown into selection trays much like that of Arabidopsis (Example 6.4). A transformed-control line containing PAT and the insect resistance gene Cry1F was planted in a similar manner. Seedlings were transferred to individual 3-inch pots in the greenhouse. All plants were sprayed with the use of a track sprayer set at 187 L/ha. The plants were sprayed with a range of pyridyloxyacetate herbicides: 200-800 g ae/ha triclopyr (Garlon 3A, Dow AgroSciences) and 200-800 g ae/ha fluoroxypyr (Starane, Dow AgroSciences). […]
# [2] = tested on: AAD-13 (v1) gene T1 tobacco plants; assay: Herbicide response of AAD-13 (v1) T1 tobacco; format: in vivo, Nicotiana tabacum; conditions: for % Injury 20-40% (individuals) / % Injury <20% (individuals) / % Injury >40% (individuals) / % Injury Ave: 2 WAT; for plant response to foliar applied auxinic herbicides (injury): 14 days after application, line pDAB4114[1]003.006
# Text: Surviving T1 plants were then randomly assigned to various rates of 2,4-D. For tobacco, 140 g ae/ha 2,4-D is an effective dose to distinguish sensitive plants from ones with meaningful levels of resistance. Elevated rates were also applied to determine relative levels of resistance (140, 560, or 2240 g ae/ha).
# All auxin herbicide applications were applied by track sprayer in a 187 L/ha spray volume. 2,4-D used was the commercial dimethylamine salt formulation (456 g ae/L, NuFarm, St Joseph, Mo.). Some T1 individuals were subjected to alternative commercial herbicides instead of a phenoxy auxin. One point of interest was determining whether the pyridyloxyacetate auxin herbicides, triclopyr and fluoroxypyr, could be effectively degraded in planta. Herbicides were applied to T1 plants with use of a track sprayer in a 187 L/ha spray volume.
# T1 transformants were first selected from the background of untransformed plants using a 2,4-D selection scheme. Table 15 compares the response of AAD-13 (v1) and control genes to impart 2,4-D resistance to tobacco T1 transformants. Response is presented in terms of % visual injury 2 WAT. […] An arithmetic mean and standard deviation is presented for each treatment. The range in individual response is also indicated in the last column for each rate and transformation. KY160 untransformed tobacco served as an auxin-sensitive control. The AAD-13 (v1) gene imparted herbicide resistance to individual T1 tobacco plants.
# The ability of AAD-13 (v1) to provide resistance to other aryloxyalkanoate auxin herbicides in transgenic tobacco was determined by foliar application of various substrates. Extra T1 generation plants following the T1 progeny testing were sprayed with the use of a track sprayer set at 187 L/ha. The plants were sprayed with a range of pyridyloxyacetate herbicides: 140-1120 g ae/ha triclopyr (Garlon 3A, Dow AgroSciences) and 280-1120 g ae/ha fluoroxypyr (Starane, Dow AgroSciences). All applications were formulated in water. Each treatment was replicated 3 times. Plants were evaluated at 3 and 14 days after treatment.
compound,measurement,setting,value
"CNC.O=C(O)COc1ccc(Cl)cc1Cl [2,4-D DMA]",% Injury 20-40% (individuals),[1]; 280 g ae/ha postemergence,0
same,% Injury <20% (individuals),[1]; 280 g ae/ha postemergence,0
same,% Injury >40% (individuals),[1]; 280 g ae/ha postemergence,20
same,% Injury Ave,[1]; 280 g ae/ha postemergence,100%
same,% Injury 20-40% (individuals),[1]; 560 g ae/ha postemergence,0
same,% Injury <20% (individuals),[1]; 560 g ae/ha postemergence,0
same,% Injury >40% (individuals),[1]; 560 g ae/ha postemergence,20
same,% Injury Ave,[1]; 560 g ae/ha postemergence,100%
same,% Injury 20-40% (individuals),[1]; 1120 g ae/ha postemergence,0
same,% Injury <20% (individuals),[1]; 1120 g ae/ha postemergence,0
same,% Injury >40% (individuals),[1]; 1120 g ae/ha postemergence,20
same,% Injury Ave,[1]; 1120 g ae/ha postemergence,100%
same,% Injury 20-40% (individuals),[1]; 2240 g ae/ha postemergence,0
same,% Injury <20% (individuals),[1]; 2240 g ae/ha postemergence,0
same,% Injury >40% (individuals),[1]; 2240 g ae/ha postemergence,20
same,% Injury Ave,[1]; 2240 g ae/ha postemergence,100%
same,% Injury 20-40% (individuals),[2]; 140 g ae/ha postemergence,0
same,% Injury <20% (individuals),[2]; 140 g ae/ha postemergence,3
same,% Injury >40% (individuals),[2]; 140 g ae/ha postemergence,0
same,% Injury Ave,[2]; 140 g ae/ha postemergence,0.0%
same,% Injury 20-40% (individuals),[2]; 560 g ae/ha postemergence,0
same,% Injury <20% (individuals),[2]; 560 g ae/ha postemergence,3
same,% Injury >40% (individuals),[2]; 560 g ae/ha postemergence,0
same,% Injury Ave,[2]; 560 g ae/ha postemergence,0.0%
same,% Injury 20-40% (individuals),[2]; 2240 g ae/ha postemergence,0
same,% Injury <20% (individuals),[2]; 2240 g ae/ha postemergence,3
same,% Injury >40% (individuals),[2]; 2240 g ae/ha postemergence,0
same,% Injury Ave,[2]; 2240 g ae/ha postemergence,2.0%
Nc1c(Cl)c(F)nc(OCC(=O)O)c1Cl [fluoroxypyr],Ave. % Injury 14DAT,[1]; 200 g ae/ha foliar-applied,100%
same,Ave. % Injury 14DAT,[1]; 400 g ae/ha foliar-applied,100%
same,Ave. % Injury 14DAT,[1]; 800 g ae/ha foliar-applied,100%
same,plant response to foliar applied auxinic herbicides (injury),[2]; 280 g ae/ha,7.0
same,plant response to foliar applied auxinic herbicides (injury),[2]; 560 g ae/ha,25.0
same,plant response to foliar applied auxinic herbicides (injury),[2]; 1120 g ae/ha,37.0
same,rate up to which significant tolerance is provided,"[2]; foliar application, T1 tobacco",up to 1120 g ae/ha
O=C(O)COc1nc(Cl)c(Cl)cc1Cl [triclopyr],Ave. % Injury 14DAT,[1]; 200 g ae/ha foliar-applied,100%
same,Ave. % Injury 14DAT,[1]; 400 g ae/ha foliar-applied,100%
same,Ave. % Injury 14DAT,[1]; 800 g ae/ha foliar-applied,100%
same,plant response to foliar applied auxinic herbicides (injury),[2]; 280 g ae/ha,53.0
same,plant response to foliar applied auxinic herbicides (injury),[2]; 560 g ae/ha,65.0
same,plant response to foliar applied auxinic herbicides (injury),[2]; 1120 g ae/ha,75.0
